From patent publication US11484543B2, “Compositions and methods for diagnosing and treating diseases and disorders associated with mutant KCNJ5” (The Rockefeller University, priority 2017, dated 2022)
Where a chain is given by its changes, count along the chain named.

Key:
[1] = in vivo; cited from earlier work
[2] = target: T1, KCNJ3/KCNJ5^L168R (Homo sapiens, UniProt P48544, L168R); test: Perforated whole-cell patch clamp, KCNJ3/KCNJ5^L168R heterotetramers in HEK293T cells; format: cell-based; conditions: 1 mM BaCl2, after 20 μM roxithromycin
T1 construct: GFP; expressed in transfected cells; host or cells: HEK293T (American Type Culture Collection), transient co-transfection
T1 sequence (P48544 1-419 L168R): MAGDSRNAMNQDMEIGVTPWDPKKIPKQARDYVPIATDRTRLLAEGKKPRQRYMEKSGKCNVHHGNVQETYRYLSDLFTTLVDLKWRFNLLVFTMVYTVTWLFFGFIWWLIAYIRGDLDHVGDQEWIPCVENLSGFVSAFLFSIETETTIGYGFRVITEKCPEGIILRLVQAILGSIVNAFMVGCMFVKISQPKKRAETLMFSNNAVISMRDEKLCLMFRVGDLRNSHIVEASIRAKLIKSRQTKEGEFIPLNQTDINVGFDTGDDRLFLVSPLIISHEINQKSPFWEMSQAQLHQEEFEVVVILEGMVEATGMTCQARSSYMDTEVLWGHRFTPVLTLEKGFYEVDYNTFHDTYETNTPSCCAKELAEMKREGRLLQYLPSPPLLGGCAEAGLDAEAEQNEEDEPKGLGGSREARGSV
T1 sequence (P48549 1-501 partner): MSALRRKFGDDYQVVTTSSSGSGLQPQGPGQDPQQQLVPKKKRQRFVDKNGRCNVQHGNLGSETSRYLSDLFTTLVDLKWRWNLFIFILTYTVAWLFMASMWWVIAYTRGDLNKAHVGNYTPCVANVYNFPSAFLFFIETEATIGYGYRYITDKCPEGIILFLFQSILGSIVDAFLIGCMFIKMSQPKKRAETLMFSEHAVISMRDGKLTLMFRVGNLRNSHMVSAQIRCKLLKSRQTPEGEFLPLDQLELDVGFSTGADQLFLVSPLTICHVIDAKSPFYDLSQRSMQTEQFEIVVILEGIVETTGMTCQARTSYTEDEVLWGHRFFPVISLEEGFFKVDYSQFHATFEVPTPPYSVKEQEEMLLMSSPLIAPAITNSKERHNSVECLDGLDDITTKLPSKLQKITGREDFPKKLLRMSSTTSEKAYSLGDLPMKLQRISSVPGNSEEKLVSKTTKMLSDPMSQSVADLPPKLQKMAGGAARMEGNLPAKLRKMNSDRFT
Method: (§1) HEK293T cells (American Type Culture Collection) were used for transient expression of GFP-tagged KCNJ5 or KCNJ3. The cells were grown in Dulbecco's modified Eagle medium (DMEM; Invitrogen) supplemented with 10% FBS (Invitrogen) in 5% CO2 and 95% air at 37° C. Cells were grown to 50-70% confluence for transfection, and the corresponding cDNAs (Choi et al., 2011, Science 331:768-772) were simultaneously applied to the cells using TurboFect transfection reagent according to the manufacturer's protocol (Fermentas). […]
(§2) Within 24 hr after transfection, the cells were treated with trypsin-containing medium (TrypLE Express) (Gibco) for 10 minutes to detach the cells. […] Fluorescence signal (an indication of positive transfection) was detected with an intensified video imaging system including a SIT 68 camera (Long Island Industries). […] After forming a high resistance seal (>2 GΩ), the membrane capacitance was monitored until the whole-cell patch configuration was formed. The cell membrane capacitance was measured and compensated. The K/cation currents were measured from −80 mV to 20 mV with 20 mV steps by an Axon 200A patch-clamp amplifier. The currents were low-pass filtered at 1 KHz and digitized by an Axon interface (Digidata 1200) and were analyzed using the pClamp software system 9 (Axon). […]

[3] = target: T2, KCNJ3/KCNJ5^WT (Homo sapiens, UniProt P48544); test: Perforated whole-cell patch clamp, KCNJ3/KCNJ5^WT heterotetramers in HEK293T cells; format: cell-based; conditions: 1 mM BaCl2
T2 construct: GFP; expressed in transfected cells; host or cells: HEK293T (American Type Culture Collection), transient co-transfection
T2 sequence (P48544 1-419): T1 sequence (P48544 1-419 L168R) with R168L
T2 sequence (P48549 1-501 partner): T1 sequence (P48549 1-501 partner)
Method: as §1, §2

Structure (SMILES) | plasma half-life [1] | block of remaining KCNJ3/KCNJ5^L168R current [2] | barium sensitivity of KCNJ3/KCNJ5^WT currents [3]
C[C@]12CCC(=O)C=C1CC[C@@H]1[C@@H]2[C@@H](O)C[C@]2(C=O)[C@@H](C(=O)CO)CC[C@@H]12 [aldosterone] | ~30 min | – | –
[Ba+2].[Cl-].[Cl-] [barium, BaCl2] | – | blocked | sensitive
